Counter-ions that a name gives are not always drawn.

This is an account of results in patent US6448011B1, “DNA encoding human alpha 1 adrenergic receptors and uses thereof” (Synaptic Pharmaceutical Corporation, priority 1992, dated 2002).

In one series the test system is human prostate tissue. Description: Inhibition of phenylephrine-induced contraction of human prostate tissue strips. As to conditions: dose-ratio method. Here is the method: Methods: Prostatic adenomas were obtained at the time of surgery from patients with symptomatic BPH. These were cut into longitudinal strips of 15 mm long and 2-4 mm wide, and suspended in 5 ml organ baths containing Krebs buffer (pH 7.4). The baths were maintained at 37° C. and continuously oxygenated with 5% CO2 and 95% O2. Isometric tension was measured with a Grass Instrument FT03 force transducer interfaced with a computer.
Tissue strips were contracted with varying concentrations of phenylephrine after incubating for 20 minutes in the absence and presence of at least three different concentrations of antagonist. Dose-response curves for phenylephrine were constructed, and the antagonist potency (pA2) was estimated by the dose-ratio method. […] This control was necessary to account for losses of antagonist due to adsorption to the tissue bath and/or metabolism during the time the antagonists were equilibrated with the prostate tissue.
`O=C(NC1CCN(CCc2c[nH]c3ccccc23)CC1)c1ccccc1` [Indoramin]: the “Human Prostate (pA)” value is recorded as 7.86.

With `COc1cc2nc(N3CCN(C(=O)c4ccco4)CC3)nc(N)c2cc1OC` [Prazosin], the “Human Prostate (pA)” value turned out to be 9.08.

For `C=Cc1sc2ccc(Cl)c3c2c1CN(C)CC3` [SKF-104856, 7-Chloro-2-ethenyl-3,4,5,6-tetrahdyro-4-methylthieno[4,3,2-ef][3]benzazepine], the “Human Prostate (pA)” value amounted to 7.66.

Consider `O=C(CCCN1CCC(NC(=O)c2ccccc2)CC1)c1ccc(Cl)cc1` [Compound 7, 1-[3-(4-chlorobenzoyl)propyl]-4-benzamidopiperidine], for which the “Human Prostate (pA)” value is 7.63.

Turning to `O=C(CCCN1CCC(NC(=O)c2ccccc2)CC1)c1ccccc1` [Compound 9, 1-(3-benzoylpropyl)-4-benzamidopiperidine], the “Human Prostate (pA)” value is 7.41.

In the case of “4-fluoro-4-(8-fluoro-1,3,4,5-tetrahydro-2H-pyrido[4,3-b]indol-2-yl)butyrophenone hydrochloride [Compound A-30360]”, the “Human Prostate (pA)” value came to 8.72.

Regarding `COc1cc2nc(N3CCN(C(=O)C4CCCO4)CC3)nc(N)c2cc1OC` (stereo not shown) [Terazosin, 2[4-(Tetrahydro-2-furoyl)piperazinyl]-4-amino-6,7-dimethoxyquinazoline hydrochloride], the “Human Prostate (pA)” value was 7.30.

In the case of `COc1ccccc1N1CCN(CCCNc2c(C)c(=O)n(C)c(=O)n2C)CC1` [5-Methyl Urapidil, 5-methylurapidil], the “Human Prostate (pA)” value was 8.38.

System in the next series: not given
Assay: not given
Conditions: not given
A word on the melting point: it is the temperature, or range, at which the solid turns liquid. Take `O=C(CCCN1CCC(NC(=O)c2ccccc2)CC1)c1ccc(Cl)cc1` (as salt: HCl) [Compound 7, 1-[3-(4-chlorobenzoyl)propyl]-4-benzamidopiperidine]: the melting point is 243 to 244 °C.

For another series, the target named is T1, α1c receptor (Bos taurus, UniProt P18130).
T1 sequence (P18130 1-466): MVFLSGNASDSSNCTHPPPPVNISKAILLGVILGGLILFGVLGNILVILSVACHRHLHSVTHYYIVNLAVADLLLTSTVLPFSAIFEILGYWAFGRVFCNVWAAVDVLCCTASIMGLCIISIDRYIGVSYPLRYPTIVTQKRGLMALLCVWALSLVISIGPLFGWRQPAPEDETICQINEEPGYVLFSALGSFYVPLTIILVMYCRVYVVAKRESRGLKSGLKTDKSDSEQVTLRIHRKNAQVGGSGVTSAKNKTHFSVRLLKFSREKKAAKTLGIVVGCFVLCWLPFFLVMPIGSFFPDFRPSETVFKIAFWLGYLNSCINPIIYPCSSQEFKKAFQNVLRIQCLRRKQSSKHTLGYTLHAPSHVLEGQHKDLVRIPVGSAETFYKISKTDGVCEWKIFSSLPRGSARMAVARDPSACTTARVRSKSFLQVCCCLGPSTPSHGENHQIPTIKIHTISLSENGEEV
Assay: not given
As to conditions: expressed α1c receptor; cited from earlier work.
On to `Cc1ccc(N(CC2=NCCN2)c2cccc(O)c2)cc1` [phentolamine], for which the “fold higher affinity than the α1b-receptor” value is reported as 30 fold.
